Measured values: US20260132127A1, “NOVEL SPIRO COMPOUND” (MITSUBISHI TANABE PHARMA CORPORATION, priority 2021, published 2026)

Molecular target: T1, human TRH-DE (Homo sapiens, UniProt Q9UKU6)
T1 construct: expressed in transfected cells; host or cells: Expi 293 cells (transient expression), membrane fraction
T1 sequence (Q9UKU6 1-1069): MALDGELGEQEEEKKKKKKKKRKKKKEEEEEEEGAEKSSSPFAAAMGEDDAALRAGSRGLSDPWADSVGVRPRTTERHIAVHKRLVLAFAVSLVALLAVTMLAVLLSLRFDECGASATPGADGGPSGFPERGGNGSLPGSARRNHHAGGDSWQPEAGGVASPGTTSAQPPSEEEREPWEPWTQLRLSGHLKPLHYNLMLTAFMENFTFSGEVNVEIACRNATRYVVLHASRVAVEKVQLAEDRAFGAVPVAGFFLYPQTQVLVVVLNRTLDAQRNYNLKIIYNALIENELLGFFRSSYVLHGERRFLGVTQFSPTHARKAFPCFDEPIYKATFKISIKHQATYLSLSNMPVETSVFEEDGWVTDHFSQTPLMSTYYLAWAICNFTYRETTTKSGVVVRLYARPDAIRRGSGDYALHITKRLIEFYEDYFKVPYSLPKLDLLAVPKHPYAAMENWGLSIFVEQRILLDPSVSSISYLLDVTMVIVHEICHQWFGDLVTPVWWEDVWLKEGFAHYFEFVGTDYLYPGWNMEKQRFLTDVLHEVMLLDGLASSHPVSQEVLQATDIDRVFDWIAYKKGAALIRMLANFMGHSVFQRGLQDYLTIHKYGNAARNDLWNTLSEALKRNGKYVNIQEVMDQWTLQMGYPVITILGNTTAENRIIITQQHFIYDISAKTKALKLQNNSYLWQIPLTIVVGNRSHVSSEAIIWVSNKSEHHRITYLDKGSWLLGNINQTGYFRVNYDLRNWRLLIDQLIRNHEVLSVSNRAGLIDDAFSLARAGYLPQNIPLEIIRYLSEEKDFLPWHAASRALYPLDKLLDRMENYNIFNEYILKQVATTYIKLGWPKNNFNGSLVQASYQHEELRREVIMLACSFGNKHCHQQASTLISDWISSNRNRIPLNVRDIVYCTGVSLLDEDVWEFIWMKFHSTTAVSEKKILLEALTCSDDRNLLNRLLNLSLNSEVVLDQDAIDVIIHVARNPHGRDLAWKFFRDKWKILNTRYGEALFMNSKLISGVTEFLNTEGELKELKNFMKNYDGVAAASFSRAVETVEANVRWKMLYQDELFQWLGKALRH
Assay: TRH-DE inhibition test (RapidFire MS measurement of product Cyclo (His-Pro))
Format: biochemical
Settings: membrane fraction of Expi 293 cells expressing human TRH-DE; 10 μM TRH substrate; room temperature, 2 hours; 16-point concentration test
Method in brief: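 Membrane fraction from Expi 293 cells transiently expressing human TRH-DE, at 4 μg/ml in phosphate buffer pH 7.4 with 200 μM bacitracin, reacted with compound and 10 μM substrate for 2 h at room temperature. Cyclo(His-Pro) measured by RapidFire MS against an isotope internal standard. IC50 from 16-point curves.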

SMILES | IC50
CC[C@@H]1COc2ncc(F)cc2C(=O)N1C1CC2(C1)CN(S(=O)(=O)c1ccccc1F)C2 [Example 41] | 70 nM
C[C@@H]1COc2nc(F)ccc2C(=O)N1C1CC2(C1)CN(S(=O)(=O)c1ccccc1F)C2 [Example 42] | 9 nM
C[C@@H]1COc2nc(C3CC3)ccc2C(=O)N1C1CC2(C1)CN(S(=O)(=O)c1ccccc1[N+](=O)[O-])C2 [Example 55] | 54 nM
Cc1nc2c(cc1F)C(=O)N(C1CC3(C1)CN(S(=O)(=O)c1ccccc1[N+](=O)[O-])C3)[C@H](C)CO2 [Example 58] | 180 nM
O=C1c2cccnc2OC[C@@H](C2CC2)N1C1CC2(C1)CN(S(=O)(=O)c1ccccc1F)C2 [Example 60] | 49 nM
O=C1c2cccnc2OCC2(CC2)N1C1CC2(C1)CN(S(=O)(=O)c1ccccc1F)C2 [Example 61] | 653 nM
O=C1c2cccnc2CC(C(F)(F)F)N1C1CC2(C1)CN(S(=O)(=O)c1ccccc1F)C2 (centres unmarked) [Example 68] | 120 nM
CC1COc2ncccc2C(=O)N1C1CC2(C1)CN(S(=O)(=O)c1ccccc1)C2 (centres unmarked) [Example 84, 4-[2-(benzenesulfonyl)-2-azaspiro[3.3]heptan-6-yl]-3-methyl-2,3-dihydropyrido[3,2-f][1,4]oxazepin-5-one] | 85 nM
Cc1nc2c(s1)C(=O)N(C1CC3(C1)CN(S(=O)(=O)c1ccccc1F)C3)[C@H](C)CC2 [Example 90] | 23 nM
C[C@@H]1CCc2nc(C(C)(F)F)sc2C(=O)N1C1CC2(C1)CN(S(=O)(=O)c1ccccc1F)C2 [Example 91] | 8 nM
C[C@@H]1CCc2nc([C@H]3C[C@H]3F)sc2C(=O)N1C1CC2(C1)CN(S(=O)(=O)c1ccccc1F)C2 [Example 95] | 4 nM
C[C@@H]1CCc2nc([C@@H]3C[C@@H]3F)sc2C(=O)N1C1CC2(C1)CN(S(=O)(=O)c1ccccc1F)C2 [Example 96] | 2 nM
C[C@@H]1CCc2nc(C3(C(F)(F)F)CC3)sc2C(=O)N1C1CC2(C1)CN(S(=O)(=O)c1ccccc1F)C2 [Example 97] | 3 nM
Cc1snc2c1CC[C@@H](C)N(C1CC3(C1)CN(S(=O)(=O)c1ccccc1F)C3)C2=O [Example 99] | 16 nM
C[C@@H]1CCc2oc(C3CC3)nc2C(=O)N1C1CC2(C1)CN(S(=O)(=O)c1ccccc1F)C2 [Example 101] | 14 nM
Cc1onc2c1CC[C@@H](C)N(C1CC3(C1)CN(S(=O)(=O)c1ccccc1F)C3)C2=O [Example 103] | 10 nM
CC1CCc2c(noc2C2CC2)C(=O)N1C1CC2(C1)CN(S(=O)(=O)c1ccccc1F)C2 (centres unmarked) [Example 104] | 14 nM
Cc1noc2c1C(=O)N(C1CC3(C1)CN(S(=O)(=O)c1ccccc1F)C3)[C@H](C)CC2 [Example 105] | 14 nM
CC(C)c1nc2c(s1)C(=O)N(C1CC3(C1)CN(S(=O)(=O)c1ccccc1F)C3)[C@H](C)CC2 [Example 110, (6R)-5-[2-(2-fluorophenyl)sulfonyl-2-azaspiro[3.3]heptan-6-yl]-2-isopropyl-6-methyl-7,8-dihydro-6H-thiazolo[5,4-c]azepin-4-one] | 4 nM
CC1C=Cc2nc(C(F)(F)F)ccc2C(=O)N1C1CC2(C1)CN(S(=O)(=O)c1ccccc1F)C2 (centres unmarked) [Example 111, 6-[2-(2-fluorophenyl)sulfonyl-2-azaspiro[3.3]heptan-6-yl]-7-methyl-2-(trifluoromethyl)-7H-pyrido[3,2-c]azepin-5-one] | 60 nM
C[C@@H]1C=Cc2nc(C3(F)CC3)sc2C(=O)N1C1CC2(C1)CN(S(=O)(=O)c1ccccc1F)C2 [Example 121] | 21 nM
C[C@@H]1C=Cc2nc([C@@H]3C[C@@H]3F)sc2C(=O)N1C1CC2(C1)CN(S(=O)(=O)c1ccccc1F)C2 [Example 122] | 15 nM
Cc1nsc2c1C(=O)N(C1CC3(C1)CN(S(=O)(=O)c1ccccc1F)C3)[C@H](C)C=C2 [Example 127] | 21 nM
C[C@@H]1C=Cc2oc(C3CC3)nc2C(=O)N1C1CC2(C1)CN(S(=O)(=O)c1ccccc1F)C2 [Example 128] | 224 nM
Cc1onc2c1C=C[C@@H](C)N(C1CC3(C1)CN(S(=O)(=O)c1ccccc1F)C3)C2=O [Example 130] | 136 nM
Cc1noc2c1C(=O)N(C1CC3(C1)CN(S(=O)(=O)c1ccccc1F)C3)[C@H](C)C=C2 [Example 132] | 131 nM
CC1C2C(c3nc(C4CC4)sc3C(=O)N1C1CC3(C1)CN(S(=O)(=O)c1ccccc1F)C3)C2(F)F (stereo not drawn) [Example 133, (2R*,4S*,5R*)-10-cyclopropyl-3,3-difluoro-6-[2-(2-fluorophenyl)sulfonyl-2-azaspiro[3.3]heptan-6-yl]-5-methyl-9-thia-6,11-diazatricyclo[6.3.0.02.4]undec-1(8),10-dien-7-one] | 4 nM
C[C@@H]1COc2cc(N3CCOCC3)ncc2C(=O)N1C1CC2(C1)CN(S(=O)(=O)c1ccccc1F)C2 [Example 134, (3R)-4-[2-(2-fluorophenyl)sulfonyl-2-azaspiro[3.3]heptan-6-yl]-3-methyl-8-morpholino-2,3-dihydropyrido[3,4-f][1,4]oxazepin-5-one] | 2 nM
C[C@@H]1COc2cc(NC3CCCC3)ncc2C(=O)N1C1CC2(C1)CN(S(=O)(=O)c1ccccc1F)C2 [Example 136] | 1 nM
C[C@@H]1COc2cc(N(C)C3CCCC3)ncc2C(=O)N1C1CC2(C1)CN(S(=O)(=O)c1ccccc1F)C2 [Example 137] | 1 nM

Now from value to compound:

IC50 | SMILES
5 nM | C[C@@H]1COc2nc(Cl)cnc2C(=O)N1C1CC2(C1)CN(S(=O)(=O)c1ccccc1F)C2 [Example 40, (7R)-3-chloro-8-[2-(2-fluorophenyl)sulfonyl-2-azaspiro[3.3]heptan-6-yl]-7-methyl-6,7-dihydropyrazino[2,3-f][1,4]oxazepin-9-one]
32 nM | CC[C@@H]1COc2nc(F)ccc2C(=O)N1C1CC2(C1)CN(S(=O)(=O)c1ccccc1F)C2 [Example 43]
14 nM | C[C@@H]1COc2nc(C(F)(F)F)ncc2C(=O)N1C1CC2(C1)CN(S(=O)(=O)c1ccccc1F)C2 [Example 44]
42 nM | C[C@@H]1COc2cc(C3CC3)ncc2C(=O)N1C1CC2(C1)CN(S(=O)(=O)c1ccccc1[N+](=O)[O-])C2 [Example 53]
8 nM | C[C@@H]1COc2nc(C(F)(F)F)ccc2C(=O)N1C1CC2(C1)CN(S(=O)(=O)c1ccccc1F)C2 [Example 56]
253 nM | C[C@@H]1COc2nc(C(F)(F)F)ccc2C(=O)N1C1CC2(C1)CN(S(=O)(=O)c1ccccc1[N+](=O)[O-])C2 [Example 57]
393 nM | O=C1c2ccc(C(F)(F)F)nc2OCC2(CC2)N1C1CC2(C1)CN(S(=O)(=O)c1ccccc1F)C2 [Example 62]
66 nM | CCn1c2ccccc2c(=O)n1C1CC2(C1)CN(S(=O)(=O)c1cc(C)ccc1F)C2 [Example 69]
25 nM | Cc1ccc(F)c(S(=O)(=O)N2CC3(CC(N4C(=O)c5cccnc5OCC4C)C3)C2)c1 (centres unmarked) [Example 70, 4-[2-(2-fluoro-5-methyl-phenyl)sulfonyl-2-azaspiro[3.3]heptan-6-yl]-3-methyl-2,3-dihydropyrido[3,2-f][1,4]oxazepin-5-one]
16 nM | Cc1nsc2c1C(=O)N(C1CC3(C1)CN(S(=O)(=O)c1ccccc1F)C3)[C@H](C)CC2 [Example 100]
3 nM | C[C@@H]1CCc2nc(C3(F)CC3)sc2C(=O)N1C1CC2(C1)CN(S(=O)(=O)c1ccccc1F)C2 [Example 109, (6R)-2-(1-fluorocyclopropyl)-5-[2-(2-fluorophenyl)sulfonyl-2-azaspiro[3.3]heptan-6-yl]-6-methyl-7,8-dihydro-6H-thiazolo[5,4-c]azepin-4-one]
116 nM | Cc1nc2c(s1)C(=O)N(C1CC3(C1)CN(S(=O)(=O)c1ccccc1F)C3)[C@H](C)C=C2 [Example 116]
46 nM | C[C@@H]1C=Cc2nc(C(C)(F)F)sc2C(=O)N1C1CC2(C1)CN(S(=O)(=O)c1ccccc1F)C2 [Example 117]
15 nM | C[C@@H]1C=Cc2nc([C@H]3C[C@H]3F)sc2C(=O)N1C1CC2(C1)CN(S(=O)(=O)c1ccccc1F)C2 [Example 123]
17 nM | C[C@@H]1C=Cc2nc(C3(C(F)(F)F)CC3)sc2C(=O)N1C1CC2(C1)CN(S(=O)(=O)c1ccccc1F)C2 [Example 124]
24 nM | Cc1snc2c1C=C[C@@H](C)N(C1CC3(C1)CN(S(=O)(=O)c1ccccc1F)C3)C2=O [Example 126]
1 nM | CCCCN(C)c1cc2c(cn1)C(=O)N(C1CC3(C1)CN(S(=O)(=O)c1ccccc1F)C3)[C@H](C)CO2 [Example 135]
